Experimental data published in patent publication US20210309619A1, “ISOXAZOLIN-5-ONE DERIVATIVES AND HERBICIDES CONTAINING THE SAME AS ACTIVE INGREDIENTS” (HOKKO CHEMICAL INDUSTRY CO., LTD., priority 2018, published 2021).

Columns and labels:
Assay type in all cases: in vivo
Echinochloa crus-galli [1] = test: Herbicidal effect test by treatment during growing period in paddy rice cultivation (Test Example 2); details: 120 g/10 a, treated seven days after seeding, 14 days after treatment
From the text: (§1) Herbicidal Rate (%)={1−(Average Dry Weight (g) of Plant of Treated Area)/(Average Dry Weight (g) of Plant of Untreated Area)}×100 [Math. 1]
(§2) Wagner pots with an area of 1/10000 ares were filled with a paddy soil, and a compound fertilizer (N:P:K=17:17:17) was mixed after addition of water, followed by soil puddling. Then, Echinochloa crus-galli, broad leaf weeds (Lindernia pyxidaria and Monochoria vaginalis) and Scirpus juncoides, 30 seeds each, were sown in a depth of 0 to 1 cm. Water was poured immediately after seeding, and the water depth was kept at about 3 cm. A subsequent management was conducted in a glass greenhouse. Emulsions prepared using the compounds in Table 4 below according to Formulation Example 5 were diluted with water seven days after seeding, and a certain amount of the water-diluted agent solutions were dropped. A converted amount of the applied active ingredient corresponded to 120 g per 10 ares. The test was conducted in a double system per one agent solution concentration area, and the herbicidal rates (%) were determined by the equation (Math. 1) 14 days after the treatment with the agents. In this regard, the compound numbers in Table 4 are the same as those in Table 1 and Table 2 above.

Scirpus juncoides [2] = test: as above; details: 120 g/10 a, treated seven days after seeding, 14 days after treatment
From the text: as §1, §2

Monochoria vaginalis [3] = test: as above; details: 120 g/10 a, treated seven days after seeding, 14 days after treatment
From the text: as §1, §2

Lindernia pyxidaria [4] = test: as above; details: 120 g/10 a, treated seven days after seeding, 14 days after treatment
From the text: as §1, §2

Echinochloa crus-galli [5] = test: Herbicidal effect test by treatment of rice paddy soil (Test Example 1); details: 120 g/10 a, treated immediately after seeding, 14 days after treatment
Protocol: (§3) Wagner pots with an area of 1/10000 ares were filled with a paddy soil, and a compound fertilizer (N:P:K=17:17:17) was mixed after water was added, followed by soil puddling. Then, Echinochloa crus-galli, broad leaf weeds (Lindernia pyxidaria and Monochoria vaginalis) and Scirpus juncoides, 30 seeds each, were sown in a depth of 0 to 1 cm. Water was poured immediately after seeding, and the water depth was kept at about 3 cm. A subsequent management was conducted in a glass greenhouse. Immediately after that, emulsions prepared using the compounds in Table 3 below according to Formulation Example 5 were diluted with water, and a certain amount of the water-diluted agent solutions were dropped. A converted amount of the applied active ingredient corresponded to 120 g per 10 ares.
(§4) This test was conducted in a double system per one agent solution concentration area, and the herbicidal rates (%) were determined by the following equation (Math. 1) 14 days after the treatment with the agents.
as §1

Scirpus juncoides [6] = test: as above; details: 120 g/10 a, treated immediately after seeding, 14 days after treatment
Protocol: as §3, §4, §1

Monochoria vaginalis [7] = test: as above; details: 120 g/10 a, treated immediately after seeding, 14 days after treatment
Protocol: as §3, §4, §1

Lindernia pyxidaria [8] = test: as above; details: 120 g/10 a, treated immediately after seeding, 14 days after treatment
Protocol: as §3, §4, §1

Echinochloa crus-galli [9] = test: Herbicidal effect test by treatment of stem and leaf in dry field farming (Test Example 4); details: 120 g/10 a, stem and leaf treatment seven days after seeding, 14 days after treatment
From the text: (§5) Herbicidal Rate (%)={1−(Average Dry Weight (g) of Plant of Treated Area)/(Average Dry Weight (g) of Plant of Untreated Area)}×100 [Math. 1] Pots with a size of 36 cm^2 were filled with a dry field farming soil (alluvium). The soil of the top layer of 1 cm and seeds of weeds, namely southern crabgrass, Echinochloa crus-galli, Chenopodium album and Amaranthus viridis, 20 seeds each, were evenly mixed, and the top layer was gently pressed. Emulsions prepared using the compounds in Table 6 below according to Formulation Example 5 were diluted with water seven days after seeding, and the water-diluted agent solutions were sprayed to the soil surfaces at a ratio of 100 liters per 10 ares. A converted amount of the applied active ingredient corresponded to 120 g per 10 ares. The herbicidal effects were evaluated by the same standard as that in Test Example 1, 14 days after the treatment with the agents. In this regard, the compound numbers in Table 6 are the same as those in Table 1 and Table 2 above.

southern crabgrass [10] = test: as above; details: 120 g/10 a, stem and leaf treatment seven days after seeding, 14 days after treatment
From the text: as §5

Chenopodium album [11] = test: as above; details: 120 g/10 a, stem and leaf treatment seven days after seeding, 14 days after treatment
From the text: as §5

Amaranthus viridis [12] = test: as above; details: 120 g/10 a, stem and leaf treatment seven days after seeding, 14 days after treatment
From the text: as §5

Echinochloa crus-galli [13] = test: Herbicidal effect test by treatment of dry field farming soil (Test Example 3); details: 120 g/10 a, sprayed one day after seeding, 14 days after treatment
From the text: as §5, with “Table 5” for “Table 6”, “water one day” for “water seven days”

southern crabgrass [14] = test: as above; details: 120 g/10 a, sprayed one day after seeding, 14 days after treatment
From the text: as §5, with “Table 5” for “Table 6”, “water one day” for “water seven days”

Chenopodium album [15] = test: as above; details: 120 g/10 a, sprayed one day after seeding, 14 days after treatment
From the text: as §5, with “Table 5” for “Table 6”, “water one day” for “water seven days”

Amaranthus viridis [16] = test: as above; details: 120 g/10 a, sprayed one day after seeding, 14 days after treatment
From the text: as §5, with “Table 5” for “Table 6”, “water one day” for “water seven days”

Row | Structure (SMILES) | Herbicidal rate, Echinochloa crus-galli (Echinochloa crus-galli [1]) [%] | Herbicidal rate, Scirpus juncoides (Scirpus juncoides [2]) [%] | Herbicidal rate, Monochoria vaginalis (Monochoria vaginalis [3]) [%] | Herbicidal rate, Lindernia pyxidaria (Lindernia pyxidaria [4]) [%] | Herbicidal rate, Echinochloa crus-galli (Echinochloa crus-galli [5]) [%] | Herbicidal rate, Scirpus juncoides (Scirpus juncoides [6]) [%] | Herbicidal rate, Monochoria vaginalis (Monochoria vaginalis [7]) [%] | Herbicidal rate, Lindernia pyxidaria (Lindernia pyxidaria [8]) [%] | Herbicidal rate, Echinochloa crus-galli (Echinochloa crus-galli [9]) [%] | Herbicidal rate, southern crabgrass (southern crabgrass [10]) [%] | Herbicidal rate, Chenopodium album (Chenopodium album [11]) [%] | Herbicidal rate, Amaranthus viridis (Amaranthus viridis [12]) [%] | Herbicidal rate, Echinochloa crus-galli (Echinochloa crus-galli [13]) [%] | Herbicidal rate, southern crabgrass (southern crabgrass [14]) [%] | Herbicidal rate, Chenopodium album (Chenopodium album [15]) [%] | Herbicidal rate, Amaranthus viridis (Amaranthus viridis [16]) [%]
1 | COC1CCCCC1n1oc(=O)c(Cc2ccccc2N(C(=O)Oc2ccccc2)S(=O)(=O)C(F)(F)F)c1C (single isomer, unassigned) [Compound 288] | 100 | 90 | 90 | 90 | 100 | 100 | 100 | 100 | 90 | 90 | 90 | 90 | 90 | 90 | 60 | 40
2 | COC1CCCCC1n1oc(=O)c(Cc2ccccc2N(C(=O)Oc2ccccc2)S(=O)(=O)C(F)(F)F)c1C (single isomer, unassigned) [Compound 289] | – | 90 | 90 | 90 | 100 | 100 | 100 | 100 | – | – | 90 | 90 | 90 | 90 | 60 | 40
3 | COC1CCCC1n1oc(=O)c(Cc2ccccc2NS(=O)(=O)C(F)(F)F)c1C (stereo not drawn) [Compound 59, 1,1,1-trifluoro-N-[2-[[(2-methoxycyclopentyl)-3-methyl-5-oxoisoxazol-4-yl]methyl]phenyl]methanesulfonamide] | 100 | 90 | 90 | 80 | 100 | 100 | 100 | 100 | 90 | 90 | 90 | 90 | 90 | 90 | 60 | 60
4 | COC1CCCCC1n1oc(=O)c(Cc2ccccc2NS(=O)(=O)C(F)(F)F)c1C (stereo not drawn) [Compound 62, 1,1,1-trifluoro-N-[2-[[(2-methoxycyclohexyl)-3-methyl-5-oxoisoxazol-4-yl]methyl]phenyl]methanesulfonamide] | 100 | 90 | 90 | 80 | 100 | 100 | 100 | 100 | 90 | 90 | 90 | 90 | 90 | 90 | 60 | 60
5 | COC1CCCC1n1oc(=O)c(Cc2ccccc2N(C(C)=O)S(=O)(=O)C(F)(F)F)c1C (stereo not drawn) [Compound 107, N-[2-[[(2-methoxycyclopentyl)-3-methyl-5-oxoisoxazol-4-yl]methyl]phenyl]-N-(trifluoromethylsulfonyl)acetamide] | 100 | 90 | 90 | 80 | 100 | 100 | 100 | 100 | 90 | 80 | 90 | 90 | 90 | 90 | 60 | 60
6 | COC1CCCC1n1oc(=O)c(Cc2ccccc2N(C(=O)C(C)C)S(=O)(=O)C(F)(F)F)c1C (stereo not drawn) [Compound 113] | 100 | 90 | 90 | 80 | 100 | 100 | 100 | 100 | 90 | 80 | 90 | 90 | 90 | 90 | 60 | 60
